Source: patent US4156724A, “N-acylamino-alpha-arylacetamido cephalosporins and antibacterial compositions and methods containing them” (Sumitomo Chemical Company, Limited, priority 1974, dated 1979)
In brackets after ≈: the same amount, converted by molar mass.

Columns and labels:
Assay type in all cases: cell-based
[1] = test system: Staphylococcus aureus 209 P; test: Minimum Inhibitory Concentration, Staphylococcus aureus 209 P; conditions: Staphylococcus aureus 209 P; read-out: Minimum Inhibitory Concentration
Method: (§1) anti-microbial activity tests were carried out on the compounds obtained in the Examples.

[2] = test system: Staphylococcus aureus FS 289; test: Minimum Inhibitory Concentration, Staphylococcus aureus FS 289; conditions: FS289; Staphylococcus aureus FS 289, strain resistant to penicillin; read-out: Minimum Inhibitory Concentration
Method: as §1
*Staphylococcus aureus FS 289: strain resistant to penicillin

[3] = test system: Escherichia coli NIHJ; test: Minimum Inhibitory Concentration, Escherichia coli NIHJ; conditions: Escherichia coli NIHJ; read-out: Minimum Inhibitory Concentration
Method: as §1

[4] = test system: Klebsiella pneumoniae 602; test: Minimum Inhibitory Concentration, Klebsiella pneumoniae 602; conditions: Klebsiella pneumoniae, 602, Klebsiella pneumoniae 602; read-out: Minimum Inhibitory Concentration
Method: as §1

[5] = test system: Proteus vulgaris HX 19; test: Minimum Inhibitory Concentration, Proteus vulgaris HX 19; conditions: HX19; Proteus vulgaris HX 19; read-out: Minimum Inhibitory Concentration
Method: as §1

[6] = test system: Pseudomonas aeruginosa 104; test: Minimum Inhibitory Concentration, Pseudomonas aeruginosa 104; conditions: Pseudomonas aeruginosa 104; read-out: Minimum Inhibitory Concentration
Method: as §1

[7] = test system: Serratia No. 72; test: Minimum Inhibitory Concentration, Serratia No. 72
Method: as §1

[8] = test system: Enterobacter aerogeneus No. 75; test: Minimum Inhibitory Concentration, Enterobacter aerogeneus No. 75; conditions: Enterobacter aerogeneus No. 75; read-out: Minimum Inhibitory Concentration
Method: as §1

| Structure (SMILES) | MIC [1] [µg/mL] | MIC [2] [µg/mL] | MIC [3] [µg/mL] | MIC [4] [µg/mL] | MIC [5] [µg/mL] | MIC [6] [µg/mL] | MIC [7] [µg/mL] | MIC [8] [µg/mL] |
| --- | --- | --- | --- | --- | --- | --- | --- | --- |
| CSc1cnc2c(O)c(C(=O)NC(C(=O)NC3C(=O)N4C(C(=O)O)=C(CSc5nnnn5C)CSC34)c3cccc(NC(N)=O)c3)cnc2n1 (centres unmarked) [Example 41] | 1.56 (≈ 2.11 µM) | 6.25 (≈ 8.46 µM) | 3.13 (≈ 4.24 µM) | 3.13 (≈ 4.24 µM) | 0.2 (≈ 0.271 µM) | 6.25 (≈ 8.46 µM) | 12.5 (≈ 16.9 µM) | 6.25 (≈ 8.46 µM) |
| CN(C)c1ccc2ncc(C(=O)NC(C(=O)NC3C(=O)N4C(C(=O)O)=C(CSc5nnnn5C)CSC34)c3ccc(O)cc3)c(O)c2n1 (centres unmarked) [Example 166] | 0.78 (≈ 1.13 µM) | 6.25 (≈ 9.02 µM) | 3.13 (≈ 4.52 µM) | 1.56 (≈ 2.25 µM) | 0.2 (≈ 0.289 µM) | 3.13 (≈ 4.52 µM) | 12.5 (≈ 18 µM) | 3.13 (≈ 4.52 µM) |
| CSc1ncc2c(O)c(C(=O)NC(C(=O)NC3C(=O)N4C(C(=O)O)=C(CSc5nnnn5C)CSC34)c3ccc(CO)cc3)cnc2n1 (centres unmarked) [Example 109] | 1.56 (≈ 2.19 µM) | 12.5 (≈ 17.6 µM) | 6.25 (≈ 8.79 µM) | 6.25 (≈ 8.79 µM) | 0.78 (≈ 1.1 µM) | 12.5 (≈ 17.6 µM) | 50 (≈ 70.3 µM) | 12.5 (≈ 17.6 µM) |
| Cn1nnnc1SCC1=C(C(=O)O)N2C(=O)C(NC(=O)[C@H](NC(=O)c3cnc4cccnc4c3O)c3ccc(O)c(Cl)c3)C2SC1 (some centres unmarked) [Example 132] | 0.78 (≈ 1.14 µM) | 3.13 (≈ 4.58 µM) | 3.13 (≈ 4.58 µM) | 1.56 (≈ 2.28 µM) | 0.1 (≈ 0.146 µM) | 6.25 (≈ 9.14 µM) | 25 (≈ 36.5 µM) | 3.13 (≈ 4.58 µM) |
| Cn1nnc(SCC2=C(C(=O)O)N3C(=O)C(NC(=O)[C@H](NC(=O)c4cnc5cccnc5c4O)c4ccc(O)cc4)C3SC2)n1 (some centres unmarked) [Example 133] | 0.78 (≈ 1.2 µM) | 3.13 (≈ 4.82 µM) | 3.13 (≈ 4.82 µM) | 1.56 (≈ 2.4 µM) | 0.1 (≈ 0.154 µM) | 3.13 (≈ 4.82 µM) | 25 (≈ 38.5 µM) | 3.13 (≈ 4.82 µM) |
| NC(=O)Nc1ccc([C@@H](NC(=O)c2ccnnc2O)C(=O)N[C@@H]2C(=O)N3C(C(=O)O)=C(CSc4cnn[nH]4)CS[C@H]23)cc1 [Example 18] | 0.39 (≈ 0.622 µM) | 6.25 (≈ 9.97 µM) | 6.25 (≈ 9.97 µM) | 6.25 (≈ 9.97 µM) | 0.2 (≈ 0.319 µM) | 6.25 (≈ 9.97 µM) | 50 (≈ 79.8 µM) | 12.5 (≈ 19.9 µM) |
| Cn1nnnc1SCC1=C(C(=O)O)N2C(=O)C(NC(=O)C(NC(=O)c3cnc4cccnc4c3O)c3ccc(CO)cc3)C2SC1 (centres unmarked) [Example 97] | 1.56 (≈ 2.35 µM) | 6.25 (≈ 9.42 µM) | 1.56 (≈ 2.35 µM) | 1.56 (≈ 2.35 µM) | 0.2 (≈ 0.301 µM) | 6.25 (≈ 9.42 µM) | 25 (≈ 37.7 µM) | 6.25 (≈ 9.42 µM) |
| Cc1nc2ncc(C(=O)NC(C(=O)NC3C(=O)N4C(C(=O)O)=C(CSc5nnnn5C)CSC34)c3cccc(NC(N)=O)c3)c(O)c2nc1C (centres unmarked) [Example 42] | 1.56 (≈ 2.16 µM) | 6.25 (≈ 8.67 µM) | 3.13 (≈ 4.34 µM) | 3.13 (≈ 4.34 µM) | 0.2 (≈ 0.277 µM) | 6.25 (≈ 8.67 µM) | 12.5 (≈ 17.3 µM) | 6.25 (≈ 8.67 µM) |
| Nc1cccc(C(NC(=O)c2ccnnc2O)C(=O)NC2C(=O)N3C(C(=O)O)=C(CSc4nncs4)CSC23)c1 (centres unmarked) [Example 59] | 0.39 (≈ 0.649 µM) | 6.25 (≈ 10.4 µM) | 6.25 (≈ 10.4 µM) | 6.25 (≈ 10.4 µM) | 0.1 (≈ 0.166 µM) | 6.25 (≈ 10.4 µM) | 50 (≈ 83.2 µM) | 12.5 (≈ 20.8 µM) |
| CSc1cnc2c(O)c(C(=O)N[C@@H](C(=O)NC3C(=O)N4C(C(=O)O)=C(CSc5nnnn5C)CSC34)c3ccc(O)cc3)cnc2n1 (some centres unmarked) [Example 146] | 0.78 (≈ 1.12 µM) | 12.5 (≈ 17.9 µM) | 1.56 (≈ 2.24 µM) | 3.13 (≈ 4.49 µM) | 1.56 (≈ 2.24 µM) | 3.13 (≈ 4.49 µM) | 25 (≈ 35.9 µM) | 6.25 (≈ 8.97 µM) |
| CC(=O)OCC1=C(C(=O)O)N2C(=O)[C@@H](NC(=O)[C@H](NC(=O)c3cccnc3O)c3ccc(NC(N)=O)cc3)[C@H]2SC1 [Example 3] | 0.39 (≈ 0.667 µM) | 6.25 (≈ 10.7 µM) | 25 (≈ 42.8 µM) | 25 (≈ 42.8 µM) | 0.39 (≈ 0.667 µM) | 12.5 (≈ 21.4 µM) | > 200 | 25 (≈ 42.8 µM) |
| Cn1nnnc1SCC1=C(C(=O)O)N2C(=O)C(NC(=O)C(NC(=O)c3cnc4ccc(O)nc4c3O)c3ccc(O)cc3)C2SC1 (centres unmarked) [Example 174] | 0.78 (≈ 1.17 µM) | 12.5 (≈ 18.8 µM) | 3.13 (≈ 4.7 µM) | 1.56 (≈ 2.34 µM) | 0.39 (≈ 0.586 µM) | 3.13 (≈ 4.7 µM) | 12.5 (≈ 18.8 µM) | 3.13 (≈ 4.7 µM) |
| Cc1ccc2c(O)c(C(=O)N[C@@H](C(=O)N[C@@H]3C(=O)N4C(C(=O)O)=C(CSc5nnnn5C)CS[C@H]34)c3ccc(NC(N)=O)cc3)cnc2n1 [Example 26] | 1.56 (≈ 2.21 µM) | 6.25 (≈ 8.86 µM) | 3.13 (≈ 4.44 µM) | 3.13 (≈ 4.44 µM) | 0.2 (≈ 0.283 µM) | 3.13 (≈ 4.44 µM) | 12.5 (≈ 17.7 µM) | 6.25 (≈ 8.86 µM) |
